# Experimental data published in PMC5491903, “The Selective Phosphoinoside-3-Kinase p110δ Inhibitor IPI-3063 Potently Suppresses B Cell Survival, Proliferation, and Differentiation” (Frontiers in Immunology, 2017).
# Experiments:
# [1] = tested on: LPS-stimulated mouse B cells; assay: IgM secretion by ELISA; type: cell-based; conditions: supernatant after 3 days
# From the text: We also evaluated plasmablast differentiation and IgM secretion in LPS-stimulated cells (Figure 5D). […] In cells treated with IPI-3063 or IPI-443, the highest concentrations inhibited plasmablast differentiation to the same degree as GDC-0941.
# For cell culture ELISA to measure total IgM, supernatants from purified B cells stimulated with LPS were collected after 3 days and diluted 1:1,000 in 2% (wt/vol) BSA in PBS. Nunc Maxisorp plates (Thermo Fisher) were coated with anti-mouse IgM (RMM-1; BioLegend) at 10 µg/mL in 50 µL of total sample in PBS and allowed to incubate overnight at 4°C. Diluted supernatant samples were incubated on coated plates for 1 h at 37°C. HRP-conjugated rabbit anti-mouse IgM secondary antibody (Zymed) was used.
# [2] = tested on: AKT phosphorylation in bone marrow-derived myeloid cells; assay: AKT phosphorylation in myeloid cells stimulated with macrophage colony stimulating factor; type: cell-based; conditions: data not shown
# mouse B cells = assay: mouse B cell survival (B220+7AAD- viability, 48 h); type: cell-based
# Procedure: To assess survival, purified mouse B cells were incubated for 48 h in either B-cell activating factor (BAFF) or interleukin-4 (IL-4) with various concentrations of IPI-3063 and IPI-443. […] The selective PI3K inhibitor IPI-3063 was very potent, achieving a significant decrease in B cell survival when present at 10 nM.
# Total splenocytes were pretreated with inhibitors as indicated, then cultured with 10 ng/mL IL-4 (A) or 60 ng/mL of BAFF (B) for 48 h. Concentrations used were 1 nM, 10 nM, 100 nM, 1 µM for IPI-443 and 1, 10, 30, 100 nM for IPI-3063. AS252424 concentrations were 100 nM, 300 nM, and 1 µM, and GDC-0941 was at 500 nM. % viability was calculated by measuring % of B220^+7AAD^− cells. Samples were collected by time. (*P < 0.05, **P < 0.001, ***P < 0.0001 one-way ANOVA with Newman–Keuls multiple comparison test).
# [3] = tested on: phosphorylation of AKT at serine 473 in mouse primary B cells; assay: p-AKT (S473) western blot in αIgM + IL-4 stimulated mouse B cells; type: cell-based
# Procedure: IPI-3063 is a p110δ selective compound with an IC50 = 0.1 nM in p110δ-specific cell-based assays and cellular IC50 values for the other class I PI3K isoforms are at least 1,000-fold higher (Table 2) ([11]). […] To test the effects of p110γ inhibition, we used AS-252424 compound with a biochemical IC50 = 30 nM for p110γ ([17]). We assessed the effects of both IPI-3063 and IPI-443 on PI3K activity in mouse primary B cells stimulated with αIgM + IL-4, by evaluating phosphorylation of AKT at the serine 473 residue (Figures 1A,C) as well as the phosphorylation of ERK1/2 on Thr202/Tyr204 residues (Figures 1B,C). Cells were treated with a pan-PI3K inhibitor GDC-0941 or with various concentrations of IPI-3063 or IPI-443, or DMSO (0.1%) as the diluent control. Separate cultures were treated with the p110γ inhibitor AS-252424 or its diluent control (0.1% EtOH). MK-2206, an AKT inhibitor, which also reduces AKT S473 phosphorylation, was also used as a control to show ERK1/2 phosphorylation is independent of AKT activity. […]
# Analysis was performed on western blots using ImageJ to measure mean fluorescence intensities of each band. Phospho-AKT S473 and phospho-ERK1/2 signal was normalized with actin measurements and fold change was calculated using the stimulated/no drug control.
# p110δ = target: T1, p110δ (Homo sapiens, UniProt O00329); assay: PI3K enzymatic assay (ADP-Glo) with purified enzymes; conditions: purified enzyme, mean ± spread (n), read-out: Biochemical IC50
# T1 construct: heterodimers consisting of full length p110α, p110β, or p110δ catalytic subunit and the p85α regulatory subunit; purchased Millipore 14-604-K
# T1 sequence (O00329 whole entry): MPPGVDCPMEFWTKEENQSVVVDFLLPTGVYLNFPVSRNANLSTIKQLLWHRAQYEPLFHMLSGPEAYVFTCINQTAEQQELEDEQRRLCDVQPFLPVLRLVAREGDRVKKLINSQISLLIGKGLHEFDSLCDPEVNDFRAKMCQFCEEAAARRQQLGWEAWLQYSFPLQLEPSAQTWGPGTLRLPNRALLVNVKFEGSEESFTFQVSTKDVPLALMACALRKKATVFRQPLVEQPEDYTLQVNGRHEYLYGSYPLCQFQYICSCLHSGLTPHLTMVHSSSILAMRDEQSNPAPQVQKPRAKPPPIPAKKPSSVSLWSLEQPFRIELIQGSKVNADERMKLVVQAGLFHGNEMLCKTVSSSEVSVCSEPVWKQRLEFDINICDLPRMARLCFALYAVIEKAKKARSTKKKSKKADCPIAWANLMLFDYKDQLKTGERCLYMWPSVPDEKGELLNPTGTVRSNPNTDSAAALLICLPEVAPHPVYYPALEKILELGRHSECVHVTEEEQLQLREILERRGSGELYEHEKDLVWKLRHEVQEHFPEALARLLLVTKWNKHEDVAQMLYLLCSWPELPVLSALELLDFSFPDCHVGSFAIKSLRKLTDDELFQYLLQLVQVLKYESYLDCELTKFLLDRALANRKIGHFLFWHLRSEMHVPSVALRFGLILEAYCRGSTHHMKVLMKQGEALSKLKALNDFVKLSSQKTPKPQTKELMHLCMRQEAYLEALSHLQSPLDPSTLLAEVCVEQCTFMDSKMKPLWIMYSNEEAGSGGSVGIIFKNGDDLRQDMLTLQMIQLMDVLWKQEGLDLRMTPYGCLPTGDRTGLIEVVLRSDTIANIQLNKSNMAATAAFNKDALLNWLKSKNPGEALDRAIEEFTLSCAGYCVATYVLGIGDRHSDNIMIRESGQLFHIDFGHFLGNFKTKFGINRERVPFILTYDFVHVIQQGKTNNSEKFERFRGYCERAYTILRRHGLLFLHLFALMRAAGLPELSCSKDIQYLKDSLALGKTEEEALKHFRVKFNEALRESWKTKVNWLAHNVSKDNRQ
# T1 sequence (P27986 whole entry partner): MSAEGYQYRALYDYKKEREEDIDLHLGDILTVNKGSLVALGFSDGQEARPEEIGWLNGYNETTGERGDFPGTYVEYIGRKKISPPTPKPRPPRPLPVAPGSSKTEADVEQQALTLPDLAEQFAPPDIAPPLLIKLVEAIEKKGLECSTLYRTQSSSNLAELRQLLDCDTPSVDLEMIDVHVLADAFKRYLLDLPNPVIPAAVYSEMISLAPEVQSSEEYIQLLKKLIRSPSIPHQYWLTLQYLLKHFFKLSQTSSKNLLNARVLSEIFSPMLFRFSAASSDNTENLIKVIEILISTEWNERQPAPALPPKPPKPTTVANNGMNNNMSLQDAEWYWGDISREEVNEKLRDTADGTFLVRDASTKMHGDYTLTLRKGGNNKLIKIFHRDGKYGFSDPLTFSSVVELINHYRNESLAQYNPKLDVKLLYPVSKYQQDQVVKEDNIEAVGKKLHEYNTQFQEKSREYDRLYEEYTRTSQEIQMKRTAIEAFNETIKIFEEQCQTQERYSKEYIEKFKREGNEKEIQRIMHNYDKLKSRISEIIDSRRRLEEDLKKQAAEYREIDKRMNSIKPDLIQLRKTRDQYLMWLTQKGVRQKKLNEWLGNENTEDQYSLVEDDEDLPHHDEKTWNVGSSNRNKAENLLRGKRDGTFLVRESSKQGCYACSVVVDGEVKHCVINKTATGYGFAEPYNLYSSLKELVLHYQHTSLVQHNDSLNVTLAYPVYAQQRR
# Procedure: (§1) Human recombinant PI3K-α (cat. no. 14-602-K), -β (cat. no. 14-603-K), -δ (cat. no. 14-604-K), and -γ (cat. no. 14-558-K) were purchased from Millipore. Phosphatidylinositol 4,5 bis phosphate (diC8-PtdIns(4,5)P2) was purchased from Avanti Polar Lipids, Inc. PI3K-α, β, and δ are heterodimers consisting of full length p110α, p110β, or p110δ catalytic subunit and the p85α regulatory subunit. PI3K-γ is a monomer of the p110γ catalytic subunit. Samples of kinase (10 nM—α, β, and δ; 20 nM—γ) were incubated with inhibitor for 30 min at room temperature in reaction buffer (15 mM HEPES pH 7.4, 20 mM NaCl, 1 mM EGTA, 0.02% Tween 20, 10 mM MgCl2, 0.2 mg/mL bovine-γ-globulins) followed by addition of ATP/diC8-PtdIns(4,5)P2 mixture to give final concentrations of 3 mM ATP and 500 µM diC8-PtdIns(4,5)P2. Reactions were incubated at room temperature for 2 h, with PI3K activity assessed via the Promega ADP-Glo Max assay kit (cat. no. V7002) according to the manufacturer’s instruction. Plates were read on Envision plate reader in luminescence mode.
# p110α = target: T2, p110α (Homo sapiens, UniProt P42336); assay: as above; conditions: purified enzyme, mean ± spread (n), read-out: Biochemical IC50
# T2 construct: heterodimers consisting of full length p110α, p110β, or p110δ catalytic subunit and the p85α regulatory subunit; purchased Millipore 14-602-K
# T2 sequence (P42336 whole entry): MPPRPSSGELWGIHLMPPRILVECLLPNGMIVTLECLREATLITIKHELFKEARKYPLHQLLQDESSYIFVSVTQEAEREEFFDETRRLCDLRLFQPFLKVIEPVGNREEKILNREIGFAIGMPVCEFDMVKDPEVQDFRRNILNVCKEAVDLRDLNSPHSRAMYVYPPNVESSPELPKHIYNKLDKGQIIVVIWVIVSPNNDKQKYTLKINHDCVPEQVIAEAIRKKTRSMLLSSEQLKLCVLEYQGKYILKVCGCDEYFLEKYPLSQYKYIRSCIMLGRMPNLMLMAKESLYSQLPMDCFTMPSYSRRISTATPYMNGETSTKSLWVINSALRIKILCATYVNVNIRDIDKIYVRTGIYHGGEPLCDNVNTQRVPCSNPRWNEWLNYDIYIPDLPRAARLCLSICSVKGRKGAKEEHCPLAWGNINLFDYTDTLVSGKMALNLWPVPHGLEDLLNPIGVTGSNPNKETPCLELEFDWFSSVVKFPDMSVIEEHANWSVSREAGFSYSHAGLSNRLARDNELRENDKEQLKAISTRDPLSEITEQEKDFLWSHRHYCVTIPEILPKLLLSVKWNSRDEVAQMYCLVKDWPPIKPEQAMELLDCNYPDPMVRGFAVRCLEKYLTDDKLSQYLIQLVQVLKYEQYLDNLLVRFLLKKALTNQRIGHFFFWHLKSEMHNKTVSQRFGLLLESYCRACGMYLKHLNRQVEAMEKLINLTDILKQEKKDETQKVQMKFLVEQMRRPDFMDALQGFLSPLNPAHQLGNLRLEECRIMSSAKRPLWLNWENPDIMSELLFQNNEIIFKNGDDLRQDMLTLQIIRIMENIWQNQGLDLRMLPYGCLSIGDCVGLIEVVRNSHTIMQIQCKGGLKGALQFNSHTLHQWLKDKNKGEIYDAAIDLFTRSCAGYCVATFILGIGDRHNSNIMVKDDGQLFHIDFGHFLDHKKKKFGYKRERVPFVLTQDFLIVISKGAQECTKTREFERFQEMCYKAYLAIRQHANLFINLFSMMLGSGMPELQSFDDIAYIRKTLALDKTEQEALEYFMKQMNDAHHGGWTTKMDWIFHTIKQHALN
# T2 sequence (P27986 whole entry partner): as the sequence (P27986 whole entry partner) above
# Procedure: as §1
# p110γ = target: T3, p110γ (Homo sapiens, UniProt P48736); assay: as above; conditions: purified enzyme, mean ± spread (n), read-out: Biochemical IC50
# T3 construct: purchased Millipore 14-558-K
# T3 sequence (P48736 whole entry): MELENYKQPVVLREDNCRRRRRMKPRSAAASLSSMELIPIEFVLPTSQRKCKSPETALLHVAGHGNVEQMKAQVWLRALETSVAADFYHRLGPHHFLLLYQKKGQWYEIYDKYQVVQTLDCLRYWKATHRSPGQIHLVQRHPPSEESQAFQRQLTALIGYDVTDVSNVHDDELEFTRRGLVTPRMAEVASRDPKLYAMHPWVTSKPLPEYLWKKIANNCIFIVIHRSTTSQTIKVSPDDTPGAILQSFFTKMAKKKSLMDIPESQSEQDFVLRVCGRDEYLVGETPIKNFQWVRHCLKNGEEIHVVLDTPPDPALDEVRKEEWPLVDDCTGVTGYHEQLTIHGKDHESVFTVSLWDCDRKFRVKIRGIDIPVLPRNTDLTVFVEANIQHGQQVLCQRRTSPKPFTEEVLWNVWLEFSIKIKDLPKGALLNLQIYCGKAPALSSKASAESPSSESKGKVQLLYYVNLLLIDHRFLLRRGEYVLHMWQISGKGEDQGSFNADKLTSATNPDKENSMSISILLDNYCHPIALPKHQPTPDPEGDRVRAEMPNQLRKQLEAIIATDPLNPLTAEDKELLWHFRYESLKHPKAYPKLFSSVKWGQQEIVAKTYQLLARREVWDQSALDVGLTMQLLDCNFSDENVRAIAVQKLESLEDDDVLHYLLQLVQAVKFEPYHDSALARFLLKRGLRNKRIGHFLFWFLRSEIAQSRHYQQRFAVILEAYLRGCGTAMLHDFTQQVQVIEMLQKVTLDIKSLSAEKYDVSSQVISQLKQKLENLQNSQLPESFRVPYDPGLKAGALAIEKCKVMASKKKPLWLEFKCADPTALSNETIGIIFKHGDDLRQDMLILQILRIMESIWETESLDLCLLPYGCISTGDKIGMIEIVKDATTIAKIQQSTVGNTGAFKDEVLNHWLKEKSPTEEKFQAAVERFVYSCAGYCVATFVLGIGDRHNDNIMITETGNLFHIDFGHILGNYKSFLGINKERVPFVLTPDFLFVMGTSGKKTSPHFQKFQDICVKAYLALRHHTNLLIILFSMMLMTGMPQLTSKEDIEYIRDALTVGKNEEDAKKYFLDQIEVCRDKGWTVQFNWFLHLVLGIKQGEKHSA
# Procedure: as §1
SMILES,effect on IgM secretion [1],effect on AKT phosphorylation [2],"effect on survival (mouse B cells; BAFF or IL-4, 48 h)","effect on p-AKT signaling ([3]; αIgM + IL-4, 100 nM, 300 nM, 1 µM)",IC50 (p110δ),IC50 (p110α),IC50 (p110γ),"concentration with significant decrease in B cell survival (mouse B cells; BAFF, 48 h)","concentration with significant reduction of p-AKT ([3]; αIgM + IL-4, 30 min pretreatment, 1 h stimulation)"
"O=C1NC(=O)/C(=C/c2ccc(-c3ccc(F)cc3O)o2)S1 [AS-252424, reference compound]",no significant effect,dose-dependent inhibition,no significant effect,no significant effect,,,,,
CC(C)n1c([C@H](C)Nc2ncnc(N)c2C#N)cc2cccc(-c3ccc(=O)n(C)c3)c2c1=O [IPI-3063],,,,,0.0025 ± 0.0012 µM,1.17 µM,2.19 µM,10 nM,1 nM
